Reference: patent US20240182945A1, “PRODUCTS FOR REGULATION OF EUKARYOTIC AND MICROBIAL CELLS GROWTH” (priority 2021, published 2024)
In brackets after ≈: the same amount, converted by molar mass.

Tests used:
[1] = system: Gram positive sporeforming bacteria; experiment: Supplements added to culture media to control bacterial diversity (microscopy, 18 h); format: cell-based; set-up: key: “+++” marks the diversity of certain bacterial type in control; “+++++” indicates an increased diversity of bacterial type; conditions: 18 h of cultivation
Source text: (§1) We next studied, could we regulate bacterial diversity grown from the bio samples with different compounds including transcriptase inhibitors, protease inhibitors, recombinase/integrase inhibitors, nucleases.

[2] = system: Gram positive non-sporeforming bacteria; experiment: as above; format: cell-based; set-up: key: “+++” marks the diversity of certain bacterial type in control; “+++++” indicates an increased diversity of bacterial type; conditions: 18 h of cultivation
Source text: as §1

[3] = system: Gram negative rods; experiment: as above; format: cell-based; set-up: key: “+++” marks the diversity of certain bacterial type in control; “+++++” indicates an increased diversity of bacterial type; conditions: 18 h of cultivation
Source text: as §1

[4] = system: PP; experiment: Animals treated with amoxicillin regimens, decrease of PP count by 3log10 over 48 hours; format: in vivo; conditions: efficacy = decrease of PP count by 3log10 over 48 hours
Protocol: 25 animals were used (n=5 per group) and were treated with different concentrations of Amoxicillin according to the results obtained by proposed method from 3 different biosamples.
(§2) Efficacy was evaluated by the decrease of PP count by 3log10 over 48 hours.

[5] = system: PP; experiment: Neutropenic mouse pneumonia infected with biosamples, tobramycin treatment, decrease of PP count by 3log10 over 48 hours; format: in vivo, C57BL/6 mice; conditions: efficacy = decrease of PP count by 3log10 over 48 hours
Protocol: Next, using the same biosamples we infected mice modulating pneumonia. For that, adult C57BL/6 mice were rendered neutropenic by injecting cyclophosphamide subcutaneously 4 days before infection (150 mg/kg of body weight), 1 day before infection (100 mg/kg), and 1 day after infection (100 mg/kg). Mice were anesthetized with 2% isoflurane and orally instilled with biosample disluted in PBS. Briefly, nares were blocked, and mice aspirated 50 μL of the biosample into the lungs while being held vertically for 60 s. MIX was taken as a Cmax.
30 animals were used (n=10 per group) and were treated with different concentrations of tobramycin according to the results obtained by proposed method from 3 different biosamples.
as §2

[6] = system: PP in sputum biosamples; experiment: Presence of PP growth in wells with different tobramycin concentrations; format: cell-based; set-up: key: “+”—presence of bacterial growth, antibiotic is ineffective; “−”—absence of bacterial growth, antibiotic is effective
Protocol: Next, biosamples were plated to the wells of 48 well plate filled with Columbia +Pept Meat Agar supplemented with tobramycin taken at different concentrations (we have taken MIC as equal to Cmax) and presence of PP growth was evaluated in each well in 24 h of growth.

[7] = system: Primary Pathogens; experiment: Sensitivity of primary pathogens to antibiotics, standard serial microbroth-dilution method (Example 23); format: cell-based; conditions: for MIC: Pseudomonas aeruginosa
Source text: We used sputum from patients with different pulmonary infections. Pure bacterial culture of each microorganisms was obtained by routine microbiological methods, bacterial identification was done by MALDI-TOF analysis, microbial diversity of biosample was done by metagenomic analysis (16S RNA sequencing).
Primary pathogen was selected as a leading pathogen in each infection case, based on consultation with an independent doctors who have received a description of the clinical picture, microbiology and microbiology analyses. Sensitivity of PP to antibiotics was evaluated using a standard serial microbroth-dilution method.

SMILES: C[C@H](Cn1cnc2c(N)ncnc21)OCP(=O)(O)O [Group 7]
- diversity of Gram positive sporeforming bacteria ([1]; compound at 0.5 ug/mL): +++
- diversity of Gram positive non-sporeforming bacteria ([2]; compound at 0.5 ug/mL): +++++
- diversity of Gram negative rods ([3]; compound at 0.5 ug/mL): +++

SMILES: C[C@H](Cn1cnc2c(N)ncnc21)OCP(=O)(O)O [Group 8]
- diversity of Gram positive sporeforming bacteria ([1]; compound at 100 ug/mL): +++
- diversity of Gram positive non-sporeforming bacteria ([2]; compound at 100 ug/mL): +++++
- diversity of Gram negative rods ([3]; compound at 100 ug/mL): +++

SMILES: Nc1nc([O-])c2ncn(COCCO)c2n1.[Na+] [Group 11]
- diversity of Gram positive sporeforming bacteria ([1]; compound at 0.5 ug/mL): +++
- diversity of Gram positive non-sporeforming bacteria ([2]; compound at 0.5 ug/mL): +++++
- diversity of Gram negative rods ([3]; compound at 0.5 ug/mL): +++

SMILES: Nc1nc([O-])c2ncn(COCCO)c2n1.[Na+] [Group 12]
- diversity of Gram positive sporeforming bacteria ([1]; compound at 100 ug/mL): +++
- diversity of Gram positive non-sporeforming bacteria ([2]; compound at 100 ug/mL): +++++
- diversity of Gram negative rods ([3]; compound at 100 ug/mL): +++

SMILES: NC[C@H]1O[C@H](O[C@H]2[C@H](O)[C@@H](O[C@H]3O[C@H](CO)[C@@H](O)[C@H](N)[C@H]3O)[C@H](N)C[C@@H]2N)[C@H](N)C[C@@H]1O [Tobramycin]
- Number of animals to whom therapy was effective/number of animals per group ([4]; Group 1a, biosample #1, QID (lowest EFFECTIVE)): 5/5
- Number of animals to whom therapy was effective/number of animals per group ([4]; Group 2a, biosample #2, TID (lowest EFFECTIVE)): 5/5
- Number of animals to whom therapy was effective/number of animals per group ([4]; Group 2b, biosample #2, BID (highest INEFFECTIVE)): 0/5
- Number of animals to whom therapy was effective/number of animals per group ([4]; Group 3a, biosample #3, BID (lowest EFFECTIVE)): 5/5
- Number of animals to whom therapy was effective/number of animals per group ([4]; Group 3b, biosample #3, QID (highest INEFFECTIVE)): 0/5
- Number of animals to whom therapy was effective/number of animals per group ([5]; Group 1a, biosample #1, Cmax 1/10 (lowest EFFECTIVE)): 5/5
- Number of animals to whom therapy was effective/number of animals per group ([5]; Group 1b, biosample #1, Cmax 1/100 (highest INEFFECTIVE)): 0/5
- Number of animals to whom therapy was effective/number of animals per group ([5]; Group 2a, biosample #2, Cmax 1/1 (lowest EFFECTIVE)): 5/5
- Number of animals to whom therapy was effective/number of animals per group ([5]; Group 2b, biosample #2, Cmax 1/10 (highest INEFFECTIVE)): 0/5
- Number of animals to whom therapy was effective/number of animals per group ([5]; Group 3a, biosample #3, Cmax 1/4 (lowest EFFECTIVE)): 5/5
- Number of animals to whom therapy was effective/number of animals per group ([5]; Group 3b, biosample #3, Cmax 1/10 (highest INEFFECTIVE)): 0/5
- Presence of bacterial growth in the wells ([6]; Biosample 1 (PP P. aeruginosa), 1/10 Cmax, 24 h): −
- Presence of bacterial growth in the wells ([6]; Biosample 1 (PP P. aeruginosa), 1/100 Cmax, 24 h): +
- Presence of bacterial growth in the wells ([6]; Biosample 1 (PP P. aeruginosa), Cmax × 2, 24 h): −
- Presence of bacterial growth in the wells ([6]; Biosample 1 (PP P. aeruginosa), Cmax × 10, 24 h): −
- Presence of bacterial growth in the wells ([6]; Biosample 1 (PP P. aeruginosa), Cmax, 24 h): −
- Presence of bacterial growth in the wells ([6]; Biosample 1 (PP P. aeruginosa), ¼ Cmax, 24 h): −
- Presence of bacterial growth in the wells ([6]; Biosample 1 (PP P. aeruginosa), ½ Cmax, 24 h): −
- Presence of bacterial growth in the wells ([6]; Biosample 2 (PP P. aeruginosa), 1/10 Cmax, 24 h): +
- Presence of bacterial growth in the wells ([6]; Biosample 2 (PP P. aeruginosa), 1/100 Cmax, 24 h): +
- Presence of bacterial growth in the wells ([6]; Biosample 2 (PP P. aeruginosa), Cmax × 2, 24 h): −
- Presence of bacterial growth in the wells ([6]; Biosample 2 (PP P. aeruginosa), Cmax × 10, 24 h): −
- Presence of bacterial growth in the wells ([6]; Biosample 2 (PP P. aeruginosa), Cmax, 24 h): −
- Presence of bacterial growth in the wells ([6]; Biosample 2 (PP P. aeruginosa), ¼ Cmax, 24 h): +
- Presence of bacterial growth in the wells ([6]; Biosample 2 (PP P. aeruginosa), ½ Cmax, 24 h): +
- Presence of bacterial growth in the wells ([6]; Biosample 3 (PP P. aeruginosa), 1/10 Cmax, 24 h): +
- Presence of bacterial growth in the wells ([6]; Biosample 3 (PP P. aeruginosa), 1/100 Cmax, 24 h): +
- Presence of bacterial growth in the wells ([6]; Biosample 3 (PP P. aeruginosa), Cmax × 2, 24 h): −
- Presence of bacterial growth in the wells ([6]; Biosample 3 (PP P. aeruginosa), Cmax × 10, 24 h): −
- Presence of bacterial growth in the wells ([6]; Biosample 3 (PP P. aeruginosa), Cmax, 24 h): −
- Presence of bacterial growth in the wells ([6]; Biosample 3 (PP P. aeruginosa), ¼ Cmax, 24 h): −
- Presence of bacterial growth in the wells ([6]; Biosample 3 (PP P. aeruginosa), ½ Cmax, 24 h): −
- Sensitivity (CLSI interpretation) ([7]; Biosample 1, P. aeruginosa): S
- Sensitivity (CLSI interpretation) ([7]; Biosample 2, P. aeruginosa): I
- Sensitivity (CLSI interpretation) ([7]; Biosample 3, P. aeruginosa): I
- MIC ([7]; Biosample 1, P. aeruginosa): 2 mg/L (≈ 4.28 µM)
- MIC ([7]; Biosample 2, P. aeruginosa): 8 mg/L (≈ 17.1 µM)
- MIC ([7]; Biosample 3, P. aeruginosa): 8 mg/L (≈ 17.1 µM)
